Assay [1] has as its target T1, 17-beta-hydroxysteroid dehydrogenase type 3 (Homo sapiens, UniProt P37058).
T1 sequence (P37058 whole entry): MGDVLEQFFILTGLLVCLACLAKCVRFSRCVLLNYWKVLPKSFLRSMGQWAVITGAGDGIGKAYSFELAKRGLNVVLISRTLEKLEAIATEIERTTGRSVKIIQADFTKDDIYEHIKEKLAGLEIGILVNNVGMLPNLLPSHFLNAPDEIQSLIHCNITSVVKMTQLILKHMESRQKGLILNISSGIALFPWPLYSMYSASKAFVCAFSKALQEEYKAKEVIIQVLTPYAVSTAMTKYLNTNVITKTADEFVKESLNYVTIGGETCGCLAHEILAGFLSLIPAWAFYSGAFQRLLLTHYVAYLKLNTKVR
Description: Inhibition of human recombinant 17-beta-HSD3 expressed in human HeLa cells using androstenedione as substrate preincubated for 30 mins prior substrate addition measured after 120 mins by spectrophotometry

Assay [2] addresses T2, Androgen receptor (Homo sapiens) (UniProt P10275).
T2 sequence (whole entry): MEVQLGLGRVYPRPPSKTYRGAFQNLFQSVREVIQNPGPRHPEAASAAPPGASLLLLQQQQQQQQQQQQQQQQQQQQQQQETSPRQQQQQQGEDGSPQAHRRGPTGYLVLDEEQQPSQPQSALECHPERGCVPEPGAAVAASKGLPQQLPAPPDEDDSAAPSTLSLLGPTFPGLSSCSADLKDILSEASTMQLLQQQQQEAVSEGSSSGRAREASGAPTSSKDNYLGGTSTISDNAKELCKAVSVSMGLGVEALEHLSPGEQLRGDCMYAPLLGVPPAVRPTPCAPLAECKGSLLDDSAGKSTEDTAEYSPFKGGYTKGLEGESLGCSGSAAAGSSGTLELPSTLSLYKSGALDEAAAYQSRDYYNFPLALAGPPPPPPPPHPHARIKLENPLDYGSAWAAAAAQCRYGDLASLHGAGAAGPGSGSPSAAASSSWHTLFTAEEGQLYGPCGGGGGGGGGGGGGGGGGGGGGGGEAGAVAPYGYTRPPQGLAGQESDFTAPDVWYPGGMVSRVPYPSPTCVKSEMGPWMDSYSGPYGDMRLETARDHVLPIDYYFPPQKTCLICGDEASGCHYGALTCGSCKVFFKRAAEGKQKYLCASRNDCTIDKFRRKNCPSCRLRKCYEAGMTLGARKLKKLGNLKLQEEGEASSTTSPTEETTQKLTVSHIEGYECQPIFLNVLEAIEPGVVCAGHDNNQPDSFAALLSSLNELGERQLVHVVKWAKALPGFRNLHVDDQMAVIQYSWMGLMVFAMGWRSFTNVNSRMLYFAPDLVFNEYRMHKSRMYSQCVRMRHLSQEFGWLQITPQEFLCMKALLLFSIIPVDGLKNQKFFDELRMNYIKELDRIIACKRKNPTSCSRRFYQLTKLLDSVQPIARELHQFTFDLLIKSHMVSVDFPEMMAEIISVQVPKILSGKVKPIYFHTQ
The assay is described as follows: Agonist activity at human androgen receptor expressed in human HeLa cells assessed as DHT-induced response after 40 hrs by luciferase/beta-galactosidase-based reporter gene assay. Type of assay: functional, cell-based.

For assay [3], the target named is T3, Estrogen receptor (Homo sapiens) (UniProt P03372).
T3 sequence (whole entry): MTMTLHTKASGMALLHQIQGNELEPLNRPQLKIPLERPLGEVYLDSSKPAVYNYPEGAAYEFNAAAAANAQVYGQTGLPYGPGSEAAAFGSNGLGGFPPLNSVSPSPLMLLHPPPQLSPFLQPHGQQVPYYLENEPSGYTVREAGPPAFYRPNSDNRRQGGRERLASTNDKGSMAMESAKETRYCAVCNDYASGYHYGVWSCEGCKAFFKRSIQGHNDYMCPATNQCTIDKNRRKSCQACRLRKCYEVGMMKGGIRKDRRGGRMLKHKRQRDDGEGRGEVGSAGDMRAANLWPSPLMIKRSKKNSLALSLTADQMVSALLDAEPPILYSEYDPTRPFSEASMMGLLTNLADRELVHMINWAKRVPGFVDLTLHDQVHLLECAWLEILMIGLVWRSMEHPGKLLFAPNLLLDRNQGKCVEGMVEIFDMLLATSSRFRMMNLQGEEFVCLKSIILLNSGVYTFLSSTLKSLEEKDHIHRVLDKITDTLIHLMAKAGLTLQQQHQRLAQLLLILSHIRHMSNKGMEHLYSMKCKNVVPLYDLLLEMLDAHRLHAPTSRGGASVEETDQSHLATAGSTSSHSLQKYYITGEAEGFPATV
In words: Agonist activity at human Estrogen receptor ERalpha expressed in human HeLa cells assessed as DHT-induced response after 40 hrs by luciferase/beta-galactosidase-based reporter gene assay. Type of assay: functional, cell-based.

Assay [4] addresses T2, Androgen receptor (Homo sapiens). The assay is described as follows: Antagonist activity at human androgen receptor expressed in human HeLa cells assessed as inhibition of DHT-induced response after 40 hrs by luciferase/beta-galactosidase-based reporter gene assay. Type of assay: functional, cell-based.
For assay [5], the target named is T4, Glucocorticoid receptor (Homo sapiens) (UniProt P04150).
T4 sequence (whole entry): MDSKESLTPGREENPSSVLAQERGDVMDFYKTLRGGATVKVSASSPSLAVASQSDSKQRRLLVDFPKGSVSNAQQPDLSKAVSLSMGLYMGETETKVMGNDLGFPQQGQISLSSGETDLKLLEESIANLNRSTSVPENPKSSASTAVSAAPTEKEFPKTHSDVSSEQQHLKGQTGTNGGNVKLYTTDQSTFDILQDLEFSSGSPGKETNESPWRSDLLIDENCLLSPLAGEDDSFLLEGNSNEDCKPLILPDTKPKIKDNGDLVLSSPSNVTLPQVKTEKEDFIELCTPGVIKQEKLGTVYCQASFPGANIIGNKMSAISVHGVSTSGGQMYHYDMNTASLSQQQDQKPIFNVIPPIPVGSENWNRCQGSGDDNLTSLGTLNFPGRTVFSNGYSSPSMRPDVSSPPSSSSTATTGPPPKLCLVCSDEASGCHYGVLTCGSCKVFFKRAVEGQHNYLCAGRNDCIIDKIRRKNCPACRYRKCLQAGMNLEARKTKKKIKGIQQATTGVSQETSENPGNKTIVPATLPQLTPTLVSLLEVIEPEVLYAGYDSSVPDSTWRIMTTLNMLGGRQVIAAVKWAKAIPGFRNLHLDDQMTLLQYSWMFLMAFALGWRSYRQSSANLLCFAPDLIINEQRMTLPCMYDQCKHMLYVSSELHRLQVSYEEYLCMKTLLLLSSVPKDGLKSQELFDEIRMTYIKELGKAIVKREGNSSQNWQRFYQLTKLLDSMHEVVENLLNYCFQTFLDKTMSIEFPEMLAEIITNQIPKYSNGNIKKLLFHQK
In words: Agonist activity at human Glucocorticoid receptor expressed in human HeLa cells assessed as DHT-induced response after 40 hrs by luciferase/beta-galactosidase-based reporter gene assay. The assay is classed as functional, cell-based.

The target of assay [6] is T4, Glucocorticoid receptor (Homo sapiens). In words: Antagonist activity at human GR receptor expressed in human HeLa cells assessed as inhibition of DHT-induced response after 40 hrs by luciferase/beta-galactosidase-based reporter gene assay. The assay is classed as functional, cell-based.
For assay [7], the target named is T3, Estrogen receptor (Homo sapiens). In words: Antagonist activity at human ERalpha receptor expressed in human HeLa cells assessed as inhibition of DHT-induced response after 40 hrs by luciferase/beta-galactosidase-based reporter gene assay. Type of assay: functional, cell-based.
Assay [8] has as its target T5, 17-beta-hydroxysteroid dehydrogenase type 1 (Homo sapiens) (UniProt P14061).
T5 sequence (whole entry): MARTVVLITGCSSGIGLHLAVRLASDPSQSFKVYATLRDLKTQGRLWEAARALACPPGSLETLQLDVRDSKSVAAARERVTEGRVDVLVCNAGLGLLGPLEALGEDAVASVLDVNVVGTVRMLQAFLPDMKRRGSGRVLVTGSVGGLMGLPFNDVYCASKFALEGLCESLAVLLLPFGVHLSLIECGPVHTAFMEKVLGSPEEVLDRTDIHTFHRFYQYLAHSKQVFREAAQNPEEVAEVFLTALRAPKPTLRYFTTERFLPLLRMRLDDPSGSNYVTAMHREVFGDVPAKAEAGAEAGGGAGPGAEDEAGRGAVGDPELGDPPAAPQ
The assay is described as follows: Inhibition of human recombinant 17-beta-HSD1 expressed in human HeLa cells using estrone as substrate preincubated for 30 mins prior substrate addition measured after 120 mins by spectrophotometry. The assay is classed as cell-based.

Assay [9] addresses T6, 17-beta-hydroxysteroid dehydrogenase type 2 (Homo sapiens) (UniProt P37059).
T6 sequence (whole entry): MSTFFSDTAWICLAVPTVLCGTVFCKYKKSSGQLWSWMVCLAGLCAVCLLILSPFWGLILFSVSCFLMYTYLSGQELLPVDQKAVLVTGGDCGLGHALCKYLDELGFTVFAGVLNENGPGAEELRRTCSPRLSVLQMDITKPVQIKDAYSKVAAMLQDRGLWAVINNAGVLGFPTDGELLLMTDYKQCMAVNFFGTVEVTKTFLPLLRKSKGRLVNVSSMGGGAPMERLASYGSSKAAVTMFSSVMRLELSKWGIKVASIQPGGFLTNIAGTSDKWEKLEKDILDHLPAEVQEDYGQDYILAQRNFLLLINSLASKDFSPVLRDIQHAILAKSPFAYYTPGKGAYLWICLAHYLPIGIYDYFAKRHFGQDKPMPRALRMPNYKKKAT
In words: Inhibition of human recombinant 17-beta-HSD2 expressed in human HeLa cells using estradiol as substrate preincubated for 30 mins prior substrate addition measured after 120 mins by spectrophotometry. Type of assay: cell-based.

The structures appear in SMILES notation. Activity calls are given as the source filed them. No rule for the calls is given here.

As to `Cc1ccc(N2C(=O)O/C(=C\c3ccc(O)c(Br)c3)C2=O)cn1`, the IC50 in assay [1] stood at 67 nM. Moreover, the outcome in [2], in assay [3], in assay [4], in [5], in assay [6] and in [7] was inactive. Also, the inhibition entry in [8] and in assay [9] was “inactive” in each case.

As to `COc1ccc(N2C(=O)/C(=C/c3ccc(O)cc3Cl)OC2=S)cc1`, the midpoint of inhibition in assay [1], the IC50, lay at 5 nM. In addition, the result in assay [2], in assay [3], in assay [4], in assay [5], in [6] and in assay [7] was inactive. In addition, the inhibition result in assay [8] and in assay [9] was “inactive” each time.

The compound `COc1ccc(N2C(=O)/C(=C/c3ccc(O)c(Cl)c3)OC2=S)cc1` gave a half-maximal inhibitory concentration (IC50) in assay [1] of 4 nM. The outcome in assay [2], in assay [3], in [4], in assay [5], in assay [6] and in assay [7] was inactive. The inhibition result in [8] and in assay [9] was “inactive” throughout.

Consider `COc1ccc(N2C(=O)/C(=C/c3ccc(O)c(OC)c3)OC2=S)cc1`, for which, in assay [1], the IC50 turned out to be 270 nM. The outcome in [2], in assay [3], in assay [4], in [5], in assay [6] and in assay [7] was inactive. The inhibition result in assay [8] and in assay [9] was “inactive” each time.

`CNC(=O)c1ccc(N2C(=O)O/C(=C\c3ccc(O)c(Br)c3)C2=O)cc1` displayed an IC50 in [1] of 56 nM. Besides, the outcome in assay [2], in [3], in assay [4], in assay [5], in assay [6] and in [7] was inactive. Also, the inhibition entry in assay [8] and in assay [9] was “inactive” each time.

As to `O=C1O/C(=C\c2ccc(O)c(Br)c2)C(=O)N1c1ccc(Cl)nc1`, the IC50 in [1] came out at 20 nM. Besides, the result in [2], in assay [3], in assay [4], in assay [5], in assay [6] and in assay [7] was inactive. The inhibition result in assay [8] and in [9] was “inactive” throughout.

The compound `O=C1/C(=C/c2ccc(O)c(Br)c2)OC(=S)N1c1ccccc1` registered an IC50 in assay [1] of 6 nM. In addition, the result in [2], in [3], in [4], in [5], in assay [6] and in [7] was inactive. The inhibition entry in [8] and in assay [9] was “inactive” each time.

Turning to `COc1ccc(N2C(=O)C(Cc3ccc(O)c(Br)c3)SC2=S)cc1` (configuration not stated), the midpoint of inhibition in assay [1], the IC50, lay at 90 nM. Moreover, the result in assay [2], in assay [3], in assay [4], in assay [5], in [6] and in assay [7] was inactive. Also, the inhibition result in assay [8] and in [9] was “inactive” each time.
